Series [1] concerns Enterococcus faecalis S613 HM-334. Description: MIC, broth microdilution (CLSI). In kind it is cell-based. The note with it: Enterococcus faecalis. How it is done:
(§1) The minimum inhibitory concentrations (MICs) of the compounds and control drugs were determined using the broth microdilution method, according to guidelines outlined by the Clinical and Laboratory Standards Institute (CLSI). Enterococci strains were grown aerobically overnight on tryptone soya agar plates at 37° C., afterwards a bacterial solution equivalent to 0.5 McFarland standard was prepared and diluted in tryptone soy broth (TSB) to achieve a bacterial concentration of about 5×10^5 CFU/mL and seeded in 96-well well plates. Compounds and control drugs were added in the first row of the 96-well plates and serially diluted along the plates. Plates were then incubated aerobically at 37° C. for 18-20 hours. MICs reported in Table 1 are the minimum concentration of the compounds/control drugs that could inhibit completely the visual growth of the bacteria.
(§2) The minimum inhibitory concentrations (MICs) of CAIs were tested against clinical isolates of vancomycin sensitive and vancomycin resistant Enterococci strains as per the guidelines provided by the Clinical and Laboratory Standards Institute (CLSI). The selected strains of Enterococci were streaked on Tryptic Soy Agar (TSA) plates and let grow for 24 hours at 37° C. Afterwards, a bacterial solution equivalent to 0.5 McFarland standard was prepared and diluted in tryptone soy broth (TSB) or brain heart infusion broth (BHIB) to achieve a bacterial concentration of about 5×10^5 CFU/mL and seeded in 96-well well plates. Compounds and control drugs were added in the first row of the 96-well plates and serially diluted along the plates. Plates were then incubated aerobically at 37° C. for 18-20 hours. MICs reported in Table 5 are the minimum concentration of the compounds/control drugs that could inhibit completely the visual growth of the bacteria.
The minimum inhibitory concentrations (MICs) of CAIs were tested against vancomycin resistant Enterococcus faecalis—S613 HM 334 strain as per the guidelines provided by the Clinical and Laboratory Standards Institute (CLSI). The selected strain was streaked on Tryptic Soy Agar (TSA) plate and let grow for 24 hours at 37° C. […] Compounds and control drugs were added in the first row of the 96-well plates and serially diluted along the plates. Plates were then incubated aerobically at 37° C. for 18-20 hours. MICs reported in table (6) are the minimum concentration of the compounds/control drugs that could inhibit completely the visual growth of the bacteria.
On the technique in general: Dilution methods test growth across graded concentrations, often in twofold steps.

Series [2] concerns Enterococcus fecalis Strain SF 24397 NR31970. Description: MIC, broth microdilution (CLSI). The series is classed as cell-based. On the procedure: as §1, §2
In series [3] the test system is Enterococcus fecalis Strain MMH594 - NR31975. Description: microbe, parasite or virus in culture. In kind it is cell-based. The note with it: Table 7; TSB. How it is done: as §1
Series [4] has as its system Bifidobacterium breve JCP7499 HM 1120. In words: MIC against human normal gut microbiota. The series is classed as cell-based. The note with it: JCP7499HM1120, 48 h. How it is done: (§3) Three different bacterial strains were used in this experiment; Bifidobacterium (anaerobic Gram positive bacteria), Bacteroides (anaerobic Gram negative bacteria) and Lactobacillus (microaerophilic Gram positive bacteria). Bifidobacterium and Bacteroides were first grown for 48 hours at 37° C., anaerobically using brain heart infusion supplemented (BHIS) agar (Brain heart infusion agar supplemented with hemin, vitamin K and L-cysteine). Lactobacillus was cultivated on MRS agar and incubated in presence of 5% CO2 for 48 hours at 37° C. Each bacterium was suspended in phosphate buffered saline (PBS) to produce a suspension with optical density that matches 0.5 McFarland standard and diluted in brain heart infusion supplemented broth (for Bifidobacterium and Bacteroides) or in MRS broth (for Lactobacillus) to achieve bacterial concentration of approximately 5×10^5 CFU/ml. Bacteria were then seeded in 96-well plates containing serial dilutions of the compounds and incubated as mentioned previously for 48 hours.

The subject of series [5] is Bacteroides dorei CL02T12C06 HM-719. Description: MIC against human normal gut microbiota. In kind it is cell-based. The note with it: Phocaeicola dorei, 48 h. On the procedure:
as §3

Series [6] deals with Bacteroides fragilis CL07T00C01 HM-709. In words: MIC against human normal gut microbiota. The series is classed as cell-based. The note with it: 48 h. On the procedure:
as §3

The subject of series [7] is Enterococcus faecium Patient #3-1 NR-31912. Description: MIC, broth microdilution (CLSI). The note with it: Table 7; TSB. The series is classed as cell-based. On the procedure:
as §1

In series [8] the test system is Enterococcus fecalis Strain SF24413 NR31971. In words: MIC, broth microdilution (CLSI). The note with it: Table 7; TSB. In kind it is cell-based. On the procedure:
as §1

In series [9] the test system is Enterococcus fecalis Strain SF 28073 - NR31972. In words: MIC, broth microdilution (CLSI). The note with it: Table 7; TSB. In kind it is cell-based. How it is done: as §1
Series [10] is classed as in vivo. The note with it: 200 mg/kg twice daily (400 mg/kg daily) for three days.
For series [11], the system named is vancomycin-resistant E. faecium. In words: Mouse model of GI colonization by VRE. The note with it: 10 mg/kg oral gavage for 8 days; feces as early as 3rd day. In kind it is in vivo, C57BL/6 mice. The text has this: Feasibility in vivo study: AZM reduces VRE load in the intestines and faeces. The promising feature, and the specific and potent antimicrobial activity of CAIs, prompted us to evaluate the in vivo efficacy of AZM in our established mouse model of GI colonization by enterococci with features that mimic the antibiotic-induced enterococcal expansion observed in humans (Mohammad, H. et al., Int J Antimicrob Agents 2018, 51, 897-904; Abdelkhalek, A, et al., PLoS One 2018, 13, e0199710). We tested AZM (two clinical doses 10 and 20 mg/kg) in female 12-week-old C57BL/6 mice (n=5 mice per group) that were sensitized with ampicillin ([…] in drinking water) for 7 days to reduce the microbiota present in the gastrointestinal tract and colonized with 10^8 CFU/mL of vancomycin-resistant E. faecium.
We thought that the rapid absorption of AZM from the gastrointestinal tract would limit their exposure time to VRE present in the gastrointestinal tract.
Mice were treated for 8 days with 10 mg/kg of drugs by oral gavage.

The test system of the next series is gut microbiota. The arrangement: species or system C57BL/6 mice. The note with it: mouse, in vivo, po, 10 mg/kg. How it is done: CAIs had no major impact on microbiota composition. An extremely promising and innovative feature of CAIs is their narrow spectrum of activity and their ability to decolonize VRE without harming the microbiome. […] To characterize the impact of CAIs administration on the composition of the gut microbiota we performed the following assay6. Female 12-week-old C57BL/6 mice (n=5 mice per group) were exposed to CAIs by oral gavage for 10 days (10 mg/kg daily). Twenty-four hours after last dose, mice were euthanized and cecal and colon contents were harvested. The microbiome was characterized using 16S rDNA gene sequencing. The microbiotas from treated mice were compared to those from a group of control mice. […] However, at the phylum level, we observed decrease in Firmicutes in CAIs treatment groups and likely due to decrease of enterococci as enterococcus is a large genus of the phylum Firmicutes. The Verrucomicrobia and Bacteroidetes remain constant while other phyla increase to fill the remaining percentage from Firmicute loss. […] Indeed, the use of traditional antibiotics can increase the selective pressure and contribute to the selection of other multi-drug-resistant organisms (Kofteridis D. et al., Int J Infect Dis 2009, 13, e313-315).

In brackets after ≈: the same amount, converted by molar mass. Like-named read-outs stand apart in the source and are kept apart here.

With `CN[C@H](CC(C)C)C(=O)N[C@H]1C(=O)N[C@@H](CC(N)=O)C(=O)N[C@H]2C(=O)N[C@H]3C(=O)N[C@H](C(=O)N[C@H](C(=O)O)c4cc(O)cc(O)c4-c4cc3ccc4O)[C@H](O)c3ccc(c(Cl)c3)Oc3cc2cc(c3O[C@@H]2O[C@H](CO)[C@@H](O)[C@H](O)[C@H]2O[C@H]2C[C@](C)(N)[C@H](O)[C@H](C)O2)Oc2ccc(cc2Cl)[C@H]1O` [Vancomycin, reference compound], the MIC in [1] (S613HM334, Table 1, TSB) is greater than 64 µg/mL; in series [1] (S613HM334, Table 5, BHIB), greater than 128 µg/mL; in series [1] (S613HM334, Table 5, TSB), greater than 128 µg/mL; in [1] (S613HM334, Table 7, TSB), greater than 64 µg/mL; in [2] (Table 5, BHIB) it was 2 µg/mL (≈ 1.38 µM); in series [2] (Table 5, TSB), 2 µg/mL (≈ 1.38 µM). Further, the MIC in series [2] (Table 7, TSB) was 2 µg/mL (≈ 1.38 µM); in series [3], 2 µg/mL (≈ 1.38 µM); in series [4] it was 8 µg/mL (≈ 5.52 µM); in series [5], 64 µg/mL (≈ 44.2 µM); in series [6] it was 64 µg/mL (≈ 44.2 µM); in [7], greater than 64 µg/mL. The MIC in series [8] was 32 µg/mL (≈ 22.1 µM); in [9], greater than 64 µg/mL.
On to `NS(=O)(=O)c1nnc(NCc2ccccc2C(F)(F)F)s1` [analog 8], for which the survival entry in series [10] is given as “all the mice survived”. Also, in series [11], the “reduction of VRE in the feces, cecum and ileum compared with AZM and linezolid” value was “superior to AZM and linezolid”.
For the molecule `CCN[C@H]1C[C@H](C)S(=O)(=O)c2sc(S(N)(=O)=O)cc21` [Dorzolamide], the MIC was greater than 128 µg/mL in series [1] (S613HM334, Table 5, BHIB, read-out: MIC); 8 µg/mL (≈ 24.7 µM) in [1] (S613HM334, Table 5, TSB, read-out: MIC); greater than 256 µg/mL in series [1] (S613HM334, Table 6, TSB in presence of 4% human serum albumin, read-out: MIC). Also, the “taxonomic structure and composition of microbiota” value in the series on gut microbiota is “no major shift or change”.

(Values after patent publication US20250328351A1, “CARBONIC ANHYDRASE INHIBITORS AND ANTIBIOTICS AGAINST MULTIDRUG RESISTANT BACTERIA” (Purdue Research Foundation, priority 2018, published 2025).)
